Source: ChEMBL document CHEMBL5370616, “Novel Nitric Oxide Donor-Azole Conjugation Strategy for Efficient Treatment of Cryptococcus neoformans Infections” (J Med Chem, 2023)
Values after ≈ are worked out from the molar mass of the structure shown. Active and inactive are the calls of the source. The calls are words filed in the database; no cut-off is given here.

Key:
[1] = tested on: Cryptococcus neoformans; test: Antifungal activity against Cryptococcus neoformans H99 assessed as reduction in fungal growth incubated for 72 hrs by CLSI protocol based microplate reader analysis; format: functional
[2] = tested on: Candida albicans; test: Antifungal activity against Candida albicans SC5314 assessed as reduction in fungal growth incubated for 48 hrs by CLSI protocol based microplate reader analysis; format: functional
[3] = tested on: Candida albicans; test: Antifungal activity against Candida albicans 0304103 assessed as reduction in fungal growth incubated for 48 hrs by CLSI protocol based microplate reader analysis; format: functional
[4] = tested on: Nakaseomyces glabratus; test: Antifungal activity against Candida glabrata 10639 assessed as reduction in fungal growth incubated for 48 hrs by CLSI protocol based microplate reader analysis; format: functional
[5] = tested on: Cryptococcus neoformans; test: Inhibition of CYP51 in Cryptococcus neoformans H99 assessed as increase in lanosterol level at 4 ug/ml incubated for 24 hrs by GC-MS analysis (Rvb= 6.24%); details: dose 4.0 µg/ml
[6] = tested on: Cryptococcus neoformans; test: Antifungal activity against Cryptococcus neoformans H99 assessed as reduction in number of colonies at 0.125 to 1 ug/ml incubated for 72 hrs by agar disk diffusion assay; format: functional; details: dose 0.125-1 µg/ml
[7] = tested on: Cryptococcus neoformans; test: Inhibition of CYP51 in Cryptococcus neoformans H99 assessed as increase in other unknown sterol level at 4 ug/ml incubated for 24 hrs by GC-MS analysis (Rvb= 12.49%); details: dose 4.0 µg/ml
[8] = tested on: Cryptococcus neoformans; test: Antifungal activity against Cryptococcus neoformans H99 assessed as reduction in fungal growth at 4 ug/ml incubated upto 72 hrs by microplate reader analysis; format: functional, organism-based; details: dose 4.0 µg/ml
[9] = tested on: Cryptococcus neoformans; test: Disruption of preformed mature biofilm in Cryptococcus neoformans H99 assessed as removal of mature biofilm at 0.125 to 32 ug/ml incubated for 24 hrs by XTT reduction assay; format: functional, organism-based; details: dose 0.125-32 µg/ml
[10] = tested on: Cryptococcus neoformans; test: Inhibition of CYP51 in Cryptococcus neoformans H99 assessed as reduction in ergosterol level at 4 ug/ml incubated for 24 hrs by GC-MS analysis (Rvb= 58.33%); details: dose 4.0 µg/ml
[11] = tested on: Cryptococcus neoformans; test: Antifungal activity against Cryptococcus neoformans H99 assessed as change in internal microstructure by observing cell membrane damage at 4 ug/ml incubated for 8 hrs by TEM analysis; format: functional, organism-based; details: dose 4.0 µg/ml
[12] = tested on: Cryptococcus neoformans; test: Antifungal activity against Cryptococcus neoformans H99 assessed as change in internal microstructure by observing sparse capsule at 4 ug/ml incubated for 8 hrs by TEM analysis; format: functional, organism-based; details: dose 4.0 µg/ml
[13] = tested on: Cryptococcus neoformans; test: Inhibition of CYP51 in Cryptococcus neoformans H99 assessed as decrease in unknown sterol level at 4 ug/ml incubated for 24 hrs by GC-MS analysis (Rvb= 22.95%); details: dose 4.0 µg/ml
[14] = tested on: Cryptococcus neoformans; test: Antifungal activity against Cryptococcus neoformans H99 assessed as reduction in fungal growth at 0.25 to 8 ug/ml incubated upto 72 hrs by microplate reader analysis; format: functional, organism-based; details: dose 0.25-8 µg/ml
[15] = tested on: Cryptococcus neoformans; test: Inhibition of biofilm formation in Cryptococcus neoformans H99 at 0.25 ug/ml incubated for 24 hrs by XTT reduction assay; format: functional

| SMILES | MIC80 [1] | MIC80 [2] | MIC80 [3] | MIC80 [4] | also measured |
| --- | --- | --- | --- | --- | --- |
| CN(Cc1ccc(OCCCOc2ccc(CC(=O)OCCCCCCOc3no[n+]([O-])c3S(=O)(=O)c3ccccc3)cc2)cc1)CC(O)(Cn1cncn1)c1ccc(F)cc1F (centres undefined) | 4 µg/mL (≈ 4.49 µM) | 8 µg/mL (≈ 8.98 µM) | > 64 µg/mL | 4 µg/mL (≈ 4.49 µM) |  |
| CN(Cc1ccc(OCCCOc2ccc(CC(=O)OCCCCO[N+](=O)[O-])cc2)cc1)CC(O)(Cn1cncn1)c1ccc(F)cc1F (centres undefined) | 0.5 µg/mL (≈ 0.731 µM) | 2 µg/mL (≈ 2.93 µM) | > 64 µg/mL | 0.5 µg/mL (≈ 0.731 µM) |  |
| CN(Cc1ccc(OCCCOc2ccc(CC(=O)OCc3ccccc3CO[N+](=O)[O-])cc2)cc1)CC(O)(Cn1cncn1)c1ccc(F)cc1F (centres undefined) | 0.25 µg/mL (≈ 0.342 µM) | 1 µg/mL (≈ 1.37 µM) | > 64 µg/mL | 1 µg/mL (≈ 1.37 µM) |  |
| OC(Cn1cncn1)(Cn1cncn1)c1ccc(F)cc1F [FLUCONAZOLE] | 2 µg/mL (≈ 6.53 µM) | 0.5 µg/mL (≈ 1.63 µM) | > 64 µg/mL | 2 µg/mL (≈ 6.53 µM) | inhibition [5]: 53.9%; Activity [6]: inactive; inhibition [7]: 21.4%; Activity [8]: inactive; Activity [9]: inactive; inhibition [10]: 19.2%; Activity [11]: Active; Activity [12]: inactive; inhibition [13]: 5.55% |
| CN(Cc1ccc(OCCCOc2ccc(CC(=O)OCCCCOc3no[n+]([O-])c3S(=O)(=O)c3ccccc3)cc2)cc1)CC(O)(Cn1cncn1)c1ccc(F)cc1F (centres undefined) | 4 µg/mL (≈ 4.64 µM) | 4 µg/mL (≈ 4.64 µM) | > 64 µg/mL | 4 µg/mL (≈ 4.64 µM) |  |
| CN(Cc1ccc(OCCCOc2ccc(CC(=O)OCCCCCOc3no[n+]([O-])c3S(=O)(=O)c3ccccc3)cc2)cc1)CC(O)(Cn1cncn1)c1ccc(F)cc1F (centres undefined) | 4 µg/mL (≈ 4.56 µM) | 4 µg/mL (≈ 4.56 µM) | > 64 µg/mL | 4 µg/mL (≈ 4.56 µM) |  |
| CN(Cc1ccc(OCCCOc2ccc(CC(=O)OCCCO[N+](=O)[O-])cc2)cc1)CC(O)(Cn1cncn1)c1ccc(F)cc1F (centres undefined) | 0.125 µg/mL (≈ 0.187 µM) | 1 µg/mL (≈ 1.49 µM) | > 64 µg/mL | 1 µg/mL (≈ 1.49 µM) | Activity [14]: Dose-Dependent Effect; inhibition at 0.25 µg/mL [15]: > 50% |
| CCN(CC)/[N+]([O-])=N/Oc1cc(N(C)CC(O)(Cn2cncn2)c2ccc(F)cc2F)c([N+](=O)[O-])cc1[N+](=O)[O-] (centres undefined) | 64 µg/mL (≈ 113 µM) | > 64 µg/mL | > 64 µg/mL | > 64 µg/mL |  |
| CN(Cc1ccc(OCCCOc2ccc(CC(=O)OCCCCCO[N+](=O)[O-])cc2)cc1)CC(O)(Cn1cncn1)c1ccc(F)cc1F (centres undefined) | 0.5 µg/mL (≈ 0.717 µM) | 1 µg/mL (≈ 1.43 µM) | > 64 µg/mL | 0.5 µg/mL (≈ 0.717 µM) |  |
| CN(Cc1ccc(CNCCOc2no[n+]([O-])c2S(=O)(=O)c2ccccc2)cc1)CC(O)(Cn1cncn1)c1ccc(F)cc1F (centres undefined) | 2 µg/mL (≈ 3.05 µM) | 64 µg/mL (≈ 97.6 µM) | 64 µg/mL (≈ 97.6 µM) | 8 µg/mL (≈ 12.2 µM) |  |
| CN(Cc1ccc(CNCCCCCOc2no[n+]([O-])c2S(=O)(=O)c2ccccc2)cc1)CC(O)(Cn1cncn1)c1ccc(F)cc1F (centres undefined) | 2 µg/mL (≈ 2.87 µM) | 8 µg/mL (≈ 11.5 µM) | > 64 µg/mL | 8 µg/mL (≈ 11.5 µM) |  |
| CN(Cc1ccc(OCCCOc2ccc(CC(=O)OCC#CCOc3no[n+]([O-])c3S(=O)(=O)c3ccccc3)cc2)cc1)CC(O)(Cn1cncn1)c1ccc(F)cc1F (centres undefined) | 2 µg/mL (≈ 2.33 µM) | 16 µg/mL (≈ 18.6 µM) | > 64 µg/mL | 2 µg/mL (≈ 2.33 µM) |  |
